Data from ChEMBL document CHEMBL3390836, “Mannich- and LedererManasse-based analogues of the natural product S-(+)-curcuphenol as cancer proliferation and migration inhibitors” (Medchemcomm, 2012).

What was measured:
SNB-75 = assay: Cytotoxicity against human SNB75 cells assessed as cell growth at 10 uM after 48 hrs by SRB assay relative to control; format: functional; conditions: SNB-75, 48 h, read-out: Activity
HL-60(TB) = assay: Cytotoxicity against human HL-60(TB) cells assessed as cell growth at 10 uM after 48 hrs by SRB assay relative to control; format: functional; conditions: HL-60, 48 h, read-out: Activity
KM12 = assay: Cytotoxicity against human KM12 cells assessed as cell growth at 10 uM after 48 hrs by SRB assay relative to control; format: functional; conditions: KM12, 48 h, read-out: Activity
[1] = Cytotoxicity against human NCI-ADR-RES cells assessed as cell growth at 10 uM after 48 hrs by SRB assay relative to control; format: functional; conditions: read-out: Activity
HCC 2998 = assay: Cytotoxicity against human HCC2998 cells assessed as cell growth at 10 uM after 48 hrs by SRB assay relative to control; format: functional; conditions: HCC 2998, 48 h, read-out: Activity
786-0 = assay: Cytotoxicity against human 786-0 cells assessed as cell growth at 10 uM after 48 hrs by SRB assay relative to control; format: functional; conditions: 786-0, 48 h, read-out: Activity
A549 = assay: Cytotoxicity against human A549 cells assessed as cell growth at 10 uM after 48 hrs by SRB assay relative to control; format: functional; conditions: A549, 48 h, read-out: Activity
SF-539 = assay: Cytotoxicity against human SF539 cells assessed as cell growth at 10 uM after 48 hrs by SRB assay relative to control; format: functional; conditions: SF-539, 48 h, read-out: Activity
[2] = Cytotoxicity against human OVCAR5 cells assessed as cell growth at 10 uM after 48 hrs by SRB assay relative to control; format: functional; conditions: OVCAR-5, 48 h, read-out: Activity
SK-MEL-5 = assay: Cytotoxicity against human SK-MEL-5 cells assessed as cell growth at 10 uM after 48 hrs by SRB assay relative to control; format: functional; conditions: SK-MEL-5, 48 h, read-out: Activity
SNB-19 = assay: Cytotoxicity against human SNB19 cells assessed as cell growth at 10 uM after 48 hrs by SRB assay relative to control; format: functional; conditions: SNB-19, 48 h, read-out: Activity
[3] = Cytotoxicity against human Hs 578T cells assessed as cell growth at 10 uM after 48 hrs by SRB assay relative to control; format: functional; conditions: read-out: Activity
MCF7 = assay: Growth inhibition of human MCF7 cells after 72 hrs by MTT assay; format: functional, cell-based; conditions: MCF7, 72 h
TK-10 = assay: Cytotoxicity against human TK10 cells assessed as cell growth at 10 uM after 48 hrs by SRB assay relative to control; format: functional; conditions: TK-10, 48 h, read-out: Activity
U-251 = assay: Cytotoxicity against human U251 cells assessed as cell growth at 10 uM after 48 hrs by SRB assay relative to control; format: functional; conditions: U-251, 48 h, read-out: Activity
[4] = Cytotoxicity against human HCT15 cells assessed as cell growth at 10 uM after 48 hrs by SRB assay relative to control; format: functional; conditions: HCT-15, 48 h, read-out: Activity
[5] = Cytotoxicity against human SKOV3 cells assessed as cell growth at 10 uM after 48 hrs by SRB assay relative to control; format: functional; conditions: SK-OV-3, 48 h, read-out: Activity
[6] = Cytotoxicity against human OVCAR8 cells assessed as cell growth at 10 uM after 48 hrs by SRB assay relative to control; format: functional; conditions: OVCAR-8, 48 h, read-out: Activity
A498 = assay: Cytotoxicity against human A498 cells assessed as cell growth at 10 uM after 48 hrs by SRB assay relative to control; format: functional; conditions: A498, 48 h, read-out: Activity
RXF 393 = assay: Cytotoxicity against human RXF393 cells assessed as cell growth at 10 uM after 48 hrs by SRB assay relative to control; format: functional; conditions: RXF 393, 48 h, read-out: Activity
IGROV-1 = assay: Cytotoxicity against human IGROV1 cells assessed as cell growth at 10 uM after 48 hrs by SRB assay relative to control; format: functional; conditions: IGROV-1, 48 h, read-out: Activity
[7] = Cytotoxicity against human HCT116 cells assessed as cell growth at 10 uM after 48 hrs by SRB assay relative to control; format: functional; conditions: HCT-116, 48 h, read-out: Activity
HT-29 = assay: Cytotoxicity against human HT-29 cells assessed as cell growth at 10 uM after 48 hrs by SRB assay relative to control; format: functional; conditions: HT-29, 48 h, read-out: Activity
MDA-MB-231 = assay: Cytotoxicity against human MDA-MB-231 cells assessed as growth inhibition after 24 hrs by MTT assay; format: cell-based; conditions: MDA-MB-231, 24 h
CCRF-CEM = assay: Cytotoxicity against human CCRF-CEM cells assessed as cell growth at 10 uM after 48 hrs by SRB assay relative to control; format: functional; conditions: read-out: Activity
ACHN = assay: Cytotoxicity against human ACHN cells assessed as cell growth at 10 uM after 48 hrs by SRB assay relative to control; format: functional; conditions: read-out: Activity
[8] = Cytotoxicity against human PC3 cells assessed as cell growth at 10 uM after 48 hrs by SRB assay relative to control; format: functional; conditions: PC-3, 48 h, read-out: Activity
SK-MEL-2 = assay: Cytotoxicity against human SK-MEL-2 cells assessed as cell growth at 10 uM after 48 hrs by SRB assay relative to control; format: functional; conditions: SK-MEL-2, 48 h, read-out: Activity
[9] = Cytotoxicity against human OVCAR3 cells assessed as cell growth at 10 uM after 48 hrs by SRB assay relative to control; format: functional; conditions: OVCAR-3, 48 h, read-out: Activity
COLO 205 = assay: Cytotoxicity against human COLO205 cells assessed as cell growth at 10 uM after 48 hrs by SRB assay relative to control; format: functional; conditions: COLO 205, 48 h, read-out: Activity
T47D = assay: Cytotoxicity against human T47D cells assessed as cell growth at 10 uM after 48 hrs by SRB assay relative to control; format: functional; conditions: read-out: Activity
K562 = assay: Cytotoxicity against human K562 cells assessed as cell growth at 10 uM after 48 hrs by SRB assay relative to control; format: functional; conditions: K562, 48 h, read-out: Activity
RPMI-8226 = assay: Cytotoxicity against human RPMI8226 cells assessed as cell growth at 10 uM after 48 hrs by SRB assay relative to control; format: functional; conditions: RPMI-8226, 48 h, read-out: Activity
SN12C = assay: Cytotoxicity against human SN12C cells assessed as cell growth at 10 uM after 48 hrs by SRB assay relative to control; format: functional; conditions: read-out: Activity
[10] = Cytotoxicity against human UACC257 cells assessed as cell growth at 10 uM after 48 hrs by SRB assay relative to control; format: functional; conditions: UACC-257, 48 h, read-out: Activity
HOP-62 = assay: Cytotoxicity against human HOP62 cells assessed as cell growth at 10 uM after 48 hrs by SRB assay relative to control; format: functional; conditions: HOP-62, 48 h, read-out: Activity

SMILES | growth at 10 µM (SNB-75) [%] | growth at 10 µM (HL-60(TB)) [%] | growth at 10 µM (KM12) [%] | growth at 10 µM [1] [%] | growth at 10 µM (HCC 2998) [%] | growth at 10 µM (786-0) [%] | growth at 10 µM (A549) [%] | growth at 10 µM (SF-539) [%] | growth at 10 µM [2] [%] | growth at 10 µM (SK-MEL-5) [%] | growth at 10 µM (SNB-19) [%] | growth at 10 µM [3] [%] | IC50 (MCF7) [µM] | growth at 10 µM (TK-10) [%] | growth at 10 µM (U-251) [%] | growth at 10 µM [4] [%] | growth at 10 µM [5] [%] | growth at 10 µM [6] [%] | growth at 10 µM (A498) [%] | growth at 10 µM (RXF 393) [%] | also measured
CC(C)=CCC[C@H](C)c1ccc(C)cc1O | 94.3 | 85.7 | 93.8 | 99 | 99.5 | 79.9 | 92.6 | 103 | 99 | 97.5 | 98.5 | 114 | > 20 | 110 | 103 | 109 | 119 | 108 | 87.8 | 103 | growth at 10 µM (IGROV-1): 97.8%; growth at 10 µM [7]: 97.3%; growth at 10 µM (HT-29): 103%; IC50 (MDA-MB-231): > 20 µM; growth at 10 µM (CCRF-CEM): 105%; growth at 10 µM (ACHN): 109%; growth at 10 µM [8]: 80%; growth at 10 µM (SK-MEL-2): 147%; growth at 10 µM [9]: 96.3%; growth at 10 µM (COLO 205): 117%; growth at 10 µM (T47D): 111%; growth at 10 µM (K562): 93%; growth at 10 µM (RPMI-8226): 99.9%; growth at 10 µM (SN12C): 105%; growth at 10 µM [10]: 107%; growth at 10 µM (HOP-62): 102%
CC(C)=CCC[C@H](C)c1ccc(C)c(CNCC2CCNCC2)c1O | 71 | 99 | 84 | 84 | -3.94 | 81.2 | 86 | 84 | 82 | 73 | 84 | 71 | > 20 | 89.4 | 57 | 79 | 83 | 85 | 65 | 65 | growth at 10 µM (IGROV-1): 83.4%; growth at 10 µM [7]: 63%; growth at 10 µM (HT-29): 8.29%; IC50 (MDA-MB-231): > 20 µM; growth at 10 µM (CCRF-CEM): 71.3%; growth at 10 µM (ACHN): 81%; growth at 10 µM [8]: 85%; growth at 10 µM (SK-MEL-2): 102%; growth at 10 µM [9]: 83%; growth at 10 µM (COLO 205): -59%; growth at 10 µM (T47D): 88%; growth at 10 µM (K562): 2.65%; growth at 10 µM (RPMI-8226): 61.7%; growth at 10 µM (SN12C): 78%; growth at 10 µM [10]: 64.2%; growth at 10 µM (HOP-62): 84%
COc1ccc(CCN2COc3c([C@@H](C)CCC=C(C)C)ccc(C)c3C2)cc1OC | 61 | 18 | -2 | -2 | -99 | -59 | 51 | 25 | 47 | -96 | 67 | 21 | 6.7 | -26 | -47 | 2 | 59 | 24 | 7 | -35 | growth at 10 µM (IGROV-1): -44%; growth at 10 µM [7]: -43%; growth at 10 µM (HT-29): -29%; IC50 (MDA-MB-231): > 20 µM; growth at 10 µM (CCRF-CEM): 14%; growth at 10 µM (ACHN): 41%; growth at 10 µM [8]: -25%; growth at 10 µM (SK-MEL-2): -68%; growth at 10 µM [9]: 16%; growth at 10 µM (COLO 205): -99%; growth at 10 µM (T47D): -64%; growth at 10 µM (K562): 13.1%; growth at 10 µM (RPMI-8226): -10%; growth at 10 µM (SN12C): 15%; growth at 10 µM [10]: 3%; growth at 10 µM (HOP-62): -76%
CC(C)=CCC[C@H](C)c1ccc(C)c2c1OCN(CCCCC(=O)O)C2 | 91.8 | 77.5 | 107 | 85.3 | 102 | 82.6 | 101 | 91.8 | 90.8 | 92 | 92.7 | 104 | > 20 | 86.1 | 106 | 92.3 | 104 | 88.8 | 99.4 | 102 | growth at 10 µM (IGROV-1): 108%; growth at 10 µM [7]: 88.6%; growth at 10 µM (HT-29): 83.3%; IC50 (MDA-MB-231): > 20 µM; growth at 10 µM (CCRF-CEM): 93.2%; growth at 10 µM (ACHN): 98.8%; growth at 10 µM [8]: 92.3%; growth at 10 µM (SK-MEL-2): 84%; growth at 10 µM [9]: 112%; growth at 10 µM (COLO 205): 110%; growth at 10 µM (T47D): 95.4%; growth at 10 µM (K562): 87.5%; growth at 10 µM (RPMI-8226): 92.3%; growth at 10 µM (SN12C): 97.6%; growth at 10 µM [10]: 89.5%; growth at 10 µM (HOP-62): 94.6%
